According to PMC8400246, “Antimicrobial Activity and Action Mechanisms of Arg-Rich Short Analog Peptides Designed from the C-Terminal Loop Region of American Oyster Defensin (AOD)” (Marine Drugs, 2021):
Positions of bridges follow the written chain, without caps; N, C: chain ends. Residues, ends and D or L forms follow the SMILES beside them.

Legend:
A. hydrophila KCTC2358 = test: Ultrasensitive radial diffusion assay (URDA), MEC; assay type: cell-based, Aeromonas hydrophila; details: A. hydrophila KCTC2358, Gram -, pH 6.6, 25 °C, triplicate, averaged
Protocol: (§1) The antimicrobial activity of the AOD analogs was assessed with an ultrasensitive radial diffusion assay (URDA), as described previously. The antimicrobial activity of the analogs (from 31.3 to 1000 μg/mL, 5 μL volume) was tested against several bacteria, including Bacillus subtilis KCTC1021, Streptococcus mutans KCCM40105, Aeromonas hydrophila KCTC2358, Escherichia coli D31, E. coli ML35p, Pseudomonas aeruginosa KCTC2004, Salmonella enterica KCTC2514, and Shigella sonnei KCTC2009. In addition, Cutibacterium acnes KCTC3314, Staphylococcus epidermidis KCTC1917, and Candida albicans KCTC7965 were used for the anti-acne activity test. All except C. acnes KCTC3314 were grown overnight for 18 h in tryptic soy broth (TSB; for bacteria) or Sabouraud dextrose broth (SDB; for C. albicans) at the appropriate temperature (25 °C for A. hydrophila, 37 °C for the others). C. acnes was grown for 72 h in reinforced clostridial medium (RCM) under anaerobic conditions with an anaerobic gas-generating pouch (GasPak EZ; Becton Dickinson and Company, Sparks, MD, USA) at 37 °C. Following overnight or 72-h incubation, the bacterial and C. albicans suspensions were diluted to a McFarland turbidity standard level of 0.5 (Vitek Colorimeter #52-1210; Hach, Loveland, CO, USA) corresponding to approximately 10^8 colony forming units (CFU)/mL for bacteria and 10^6 CFU/mL for C. albicans. Diluted bacterial or C. albicans suspension (0.5 mL) was added to 9.5 mL underlay gel containing 5 × 10^6 or 5 × 10^4 CFU/mL in 10 mM phosphate buffer (pH 6.6) with 0.03% TSB (or RCM) or 0.03% SDB and 1% Type I low-electroendosmosis agarose. The AOD analogs were serially diluted two-fold in 5 µL acidified water (0.01% acetic acid; HAc) and each dilution was added to 2.5-mm diameter wells in the 1-mm thick underlay gel. After incubation for 3 h at either 25 °C (for A. hydrophila) or 37 °C (for the others), the bacterial or yeast suspension was overlaid with 10 mL double-strength overlay gel containing 6% TSB, RCM, or SDB with 10 mM phosphate buffer (pH 6.6) in 1% agarose. Plates were incubated for an additional 18–24 h (72 h for C. acnes) and the clearing zone diameters were measured. After subtracting the diameter of the well (2.5 mm), the clearing zone diameter was expressed in units (0.1 mm = 1 U).
(§2) The minimal effective concentration (MEC; μg/mL) of the AOD analogs was calculated as the X-intercept of a plot of clearing zone diameter units against the log10 of the peptide concentration. Piscidin 1, an α-helical AMP isolated from hybrid striped bass (Morone saxatilis × Morone chrysops) was used as a positive control.

S. mutans KCCM40105 = test: Ultrasensitive radial diffusion assay (URDA), MEC; assay type: cell-based, Streptococcus mutans; details: S. mutans KCCM40105, Gram +, pH 6.6, 37 °C, triplicate, averaged
Protocol: as §1, §2

E. coli D31 = test: Ultrasensitive radial diffusion assay (URDA), MEC; assay type: cell-based, Escherichia coli; details: E. coli D31, Gram -, pH 6.6, 37 °C, triplicate, averaged
Protocol: as §1, §2

E. coli ML35p = test: Ultrasensitive radial diffusion assay (URDA), MEC; assay type: cell-based, Escherichia coli; details: Gram -, pH 6.6, 37 °C, triplicate, averaged
Protocol: as §1, §2

S. enterica KCTC2514 = test: Ultrasensitive radial diffusion assay (URDA), MEC; assay type: cell-based, Salmonella enterica; details: S. enterica KCTC2514, Gram -, pH 6.6, 37 °C, triplicate, averaged
Protocol: as §1, §2

B. subtilis KCTC1021 = test: Ultrasensitive radial diffusion assay (URDA), MEC; assay type: cell-based, Bacillus subtilis; details: B. subtilis KCTC1021, Gram +, 10 mM phosphate buffer pH 6.6, 37 °C, X-intercept of clearing zone vs log10 concentration, triplicate, averaged
Protocol: as §1, §2

[1] = system: E. coli DH5α genomic DNA (16S ribosomal gene); test: DNA amplification (PCR) inhibition assay; assay type: biochemical, Escherichia coli; details: 1.5 µg of each analog, 0.2 µg E. coli DH5α gDNA, 30 cycles
Protocol: To determine whether AOD analogs target DNA amplification, the ability of the analogs to inhibit DNA amplification was assessed using E. coli DH5α genomic DNA (gDNA). Total gDNA was extracted using the phenol–chloroform method, as described previously. To assess the inhibition of DNA amplification, 1.5 µg AOD analog was added to the polymerase chain reaction (PCR) mixture. The PCR solution consisted of 0.2 µg purified gDNA, 5 µL 10× PCR buffer with MgCl2, 4 µL of each dNTP at 2.5 mM, 0.25 μL Ex Taq polymerase (Takara Bio, Shiga, Japan), 2.0 pmol each of primers 27F (5′-[…]-3′) and 1492R (5′-TACGGCTACCTTGTTACGA-CTT-3′), and up to 50 µL sterile distilled water. The PCR thermal cycling conditions were as follows: initial denaturation at 94 °C for 5 min; 30 cycles of 94 °C for 30 s, 55 °C for 30 s, and 72 °C for 2 min; and a final extension for 10 min at 72 °C. PCR was conducted using a Type 9700 Thermal Cycler (Perkin-Elmer, Norwalk City, CA, USA). The PCR products were confirmed through 1.5% agarose gel electrophoresis with 0.5 μg/mL EtBr. Piscidin 1 was used as a positive control and 0.01% HAc was used as a negative control.

[2] = system: 100-bp DNA ladder and DNA polymerase; test: Competitive binding between DNA and DNA polymerase; details: 1 μg peptide, 0.2 μg 100-bp DNA ladder, DNA polymerase 1.0 μL (5 units/μL), 37 °C, 60 min
Protocol: To assess the preferential binding ability of the AOD analogs to DNA or DNA polymerase, a competitive binding assay was performed. Briefly, AOD analog was added to a reaction mixture containing DNA or DNA polymerase and incubated for 60 min at 37 °C. […] Piscidin 1 and 0.01% HAc were the positive and negative controls, respectively.

P. aeruginosa KCTC2004 = test: Ultrasensitive radial diffusion assay (URDA), MEC; assay type: cell-based, Pseudomonas aeruginosa; details: P. aeruginosa KCTC2004, Gram -, pH 6.6, 37 °C, triplicate, averaged
Protocol: as §1, §2

C. acnes KCTC3314 = test: Ultrasensitive radial diffusion assay (URDA), MEC; assay type: cell-based, Cutibacterium acnes; details: C. acnes KCTC3314, Gram +, anaerobic, RCM, 72 h, 37 °C, triplicate, averaged
Protocol: as §1, §2

S. epidermidis KCTC1917 = test: Ultrasensitive radial diffusion assay (URDA), MEC; assay type: cell-based, Staphylococcus epidermidis; details: S. epidermidis KCTC1917, Gram +, pH 6.6, 37 °C, triplicate, averaged
Protocol: as §1, §2

100-bp DNA ladder = test: DNA binding assay (electrophoretic mobility shift); details: 1 μg analog with 0.2 μg 100-bp DNA ladder, 37 °C, 60 min, 1.8% agarose gel with EtBr
Protocol: To evaluate the binding ability of the AOD analogs to intracellular components, a DNA binding assay was performed as previously described with minor modifications. The DNA-binding ability of the AOD analogs was assessed through observation of the inhibition of migration of DNA bands through agarose gels. A commercial 100-bp DNA ladder (0.2 μg) (Bioneer Corp., Daejeon, South Korea) was mixed with each analog (1 μg) in 0.01% acetic acid, and the resulting mixture was incubated at 37 °C for 60 min and then electrophoresed on 1.8% agarose gels containing 0.5 μg/mL ethidium bromide (EtBr). HAc (0.01%) was used as a negative control.
To determine the concentration required for the interaction of AOD analogs with DNA, a DNA binding assay was performed with various mixing ratios of analog A3 (0.25–1.0 μg/mL) and 100-bp DNA ladder (0.1–0.4 μg), as described above.

C. albicans KCTC7965 = test: Ultrasensitive radial diffusion assay (URDA), MEC; assay type: cell-based, Candida albicans; details: C. albicans KCTC7965, yeast, SDB, pH 6.6, 37 °C, triplicate, averaged
Protocol: as §1, §2

V. parahaemolyticus gDNA = test: Bacterial gDNA binding (electrophoretic mobility shift); set-up: species or system Vibrio parahaemolyticus; details: 1 μg of analog with V. parahaemolyticus gDNA, agarose gel
Protocol: To evaluate the binding ability of the AOD analogs to intracellular components, a DNA binding assay was performed as previously described with minor modifications. The DNA-binding ability of the AOD analogs was assessed through observation of the inhibition of migration of DNA bands through agarose gels. […] HAc (0.01%) was used as a negative control.

S. sonnei KCTC2009 = test: Ultrasensitive radial diffusion assay (URDA), MEC; assay type: cell-based, Shigella sonnei; details: S. sonnei KCTC2009, Gram -, pH 6.6, 37 °C, triplicate, averaged
Protocol: as §1, §2

several microorganisms = details: analog peptides from the C-terminus of MGD-1; cited from earlier work
Excerpt: This peptide contains three disulfide bridges linked with six cysteine (Cys) residues, which contribute to its structural stability. For the development of potential AMPs from AOD, the AOD molecule may be inappropriate due to its complex structure containing six Cys residues and long sequence length (38 residues), which complicate the recreation of its structure and increase production costs. In a previou ...

[3] = system: human red blood cells (RBCs; blood type B); details: 3% hematocrit, 3.13–100 μg/mL, 60 min, 37 °C, absorbance 542 nm, triplicate

Row | Compound | Minimal Effective Concentration (A. hydrophila KCTC2358) [µg/mL] | Minimal Effective Concentration (S. mutans KCCM40105) [µg/mL] | Minimal Effective Concentration (E. coli D31) [µg/mL] | Minimal Effective Concentration (E. coli ML35p) [µg/mL] | Minimal Effective Concentration (S. enterica KCTC2514) [µg/mL] | Minimal Effective Concentration (B. subtilis KCTC1021) [µg/mL] | inhibition of DNA amplification (PCR) [1] | competitive binding between DNA and DNA polymerase (electrophoretic mobility of DNA) [2] | Minimal Effective Concentration (P. aeruginosa KCTC2004) [µg/mL] | Minimal Effective Concentration (C. acnes KCTC3314) [µg/mL] | Minimal Effective Concentration (S. epidermidis KCTC1917) [µg/mL] | electrophoretic mobility of the DNA (DNA-binding ability) (100-bp DNA ladder) | Minimal Effective Concentration (C. albicans KCTC7965) [µg/mL] | electrophoretic mobility of V. parahaemolyticus gDNA (V. parahaemolyticus gDNA) | Minimal Effective Concentration (S. sonnei KCTC2009) [µg/mL] | antimicrobial activity (in words) (several microorganisms) | hemolytic activity [3]
1 | N=C(N)NCCC[C@@H]1NC(=O)[C@H](CCCNC(=N)N)NC(=O)[C@H](CCCNC(=N)N)NC(=O)[C@H](CCCNC(=N)N)NC(=O)[C@H](Cc2c[nH]c3ccccc23)NC(=O)[C@H](CCCNC(=N)N)NC(=O)[C@H](CCCNC(=N)N)NC(=O)[C@@H](N)CSSC[C@@H](C(=O)O)NC1=O [Analog A3] (H-CRRWRRRRC-OH; disulfide 1-9) | 3.3 | 1.5 | 5.0 | 6.8 | 6.5 | 0.4 | partially or completely inhibited | inhibited | 3.0 | 53.7 | 4.2 | inhibited | 54.0 | inhibited | 5.5 |  | 
2 | CGGWHRLRC [analog peptide derived from the C-terminus (loop 3) of MGD-1] |  |  |  |  |  |  |  |  |  |  |  |  |  |  |  | potent antimicrobial activity | 
3 | CKKWKRKRC [Lys-substituted analog peptide derived from …] |  |  |  |  |  |  |  |  |  |  |  |  |  |  |  | stronger antibacterial activity than the parent analog peptide | 
4 | Piscidin 1: α-helical AMP isolated from hybrid striped bass, used as a positive control (FFHHIFRGIVHVGKTIHRLVTG) [reference compound] | 9.1 | 3.2 | 2.0 | 2.3 | 4.6 | 2.3 | did not inhibit | preferentially binds to DNA polymerase over DNA | 8.0 |  |  |  | 11.8 |  | 8.6 |  | strong hemolysis, even at very low concentrations (from 6.25 μg/mL)
